From US12018059B2, “Human amylin analog polypeptides and methods of use” (Intarcia Therapeutics, Inc., priority 2018, dated 2024)
Starred links: 1 amine or outer side, 2 acyl side, 3 side chain; linkers in the order of their positions; H or OH if unused. Positions of bridges follow the written chain, without caps; N, C: chain ends. Non-standard residues stand in square brackets, D forms with d. Residues, ends and D or L forms follow the SMILES beside them. Groups on a side chain read outwards from the residue. *: point of attachment. X3 = O=C(O)CCCCCCCCCCCCCCCCCCC(=O)N[C@@H](CCC(=O)NCOCCOCC(=O)NCOCCOCC(=O)*)C(=O)O; C18 diacid = O=C(O)CCCCCCCCCCCCCCCCC(=O)*; γGlu = O=C(O)[C@H](CCC(=O)[*:2])N[*:1]; Stearoyl = CCCCCCCCCCCCCCCCCC(=O)*; Palmitoyl = CCCCCCCCCCCCCCCC(=O)*; X5 = O=C(O)CCCCCCCCCCCC(=O)*; AEEA = NCCOCCOCC(=O)O

assay: in vivo; parameters: species or system Sprague-Dawley rats; settings: rat, iv, 0.033 mg/kg
Summary of the method: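 Male Sprague-Dawley rats, non-fasted (n=3), given peptide in saline as 1-h IV or SC infusion at 0.033 mg/kg, or SC bolus at 0.3 mg/kg; jugular blood to 48 h into K2EDTA plus protease inhibitors. Plasma extracted by precipitation or WCX solid-phase extraction, quantified by UPLC-MS/MS against standards in matching rat plasma.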

| Compound | Vd | clearance | half-life |
| --- | --- | --- | --- |
| CC[C@H](C)[C@H](NC(=O)[C@@H]1CCCN1C(=O)CNC(=O)[C@H](Cc1ccccc1)NC(=O)[C@H](CC(N)=O)NC(=O)[C@H](CC(N)=O)NC(=O)[C@H](CO)NC(=O)[C@H](CO)NC(=O)[C@H](CCCCN)NC(=O)[C@H](Cc1c[nH]cn1)NC(=O)[C@H](CCCCNC(=O)CCCCCCCCCCCCCCCCC(=O)O)NC(=O)[C@H](CCC(=O)O)NC(=O)[C@H](CC(N)=O)NC(=O)[C@H](C)NC(=O)[C@H](CC(C)C)NC(=O)[C@H](CCCNC(=N)N)NC(=O)[C@H](CCC(N)=O)NC(=O)[C@@H](NC(=O)[C@H](C)NC(=O)[C@@H]1CSSC[C@H](NC(=O)[C@@H](N)CO)C(=O)N[C@@H](CC(N)=O)C(=O)N[C@@H]([C@@H](C)O)C(=O)N[C@@H](CO)C(=O)N[C@@H]([C@@H](C)O)C(=O)N1)[C@@H](C)O)C(=O)N[C@@H](CC(C)C)C(=O)N1CCC[C@H]1C(=O)N1CCC[C@H]1C(=O)N[C@H](C(=O)N[C@@H](CCCCN)C(=O)N[C@H](C(=O)NCC(=O)N[C@@H](CO)C(=O)N[C@@H](CCC(=O)O)C(=O)N[C@H](C(=O)N[C@@H](Cc1ccc(O)cc1)C(N)=O)[C@@H](C)O)C(C)C)[C@@H](C)O [Compound A93] (H-SCNTSTCATQRLANEK(C18 diacid)HKSSNNFGPILPPTKVGSETY-NH2; disulfide 2-7) | 0.129 L/kg | 0.109 mL/min/kg | 16.7 h |
| CCCCCCCCCCCCCCCC(=O)N[C@@H](CCC(=O)NCCCC[C@@H](NC(=O)[C@H](CCC(=O)O)NC(=O)[C@H](CC(N)=O)NC(=O)[C@H](C)NC(=O)[C@H](CC(C)C)NC(=O)[C@H](CCCNC(=N)N)NC(=O)[C@H](CCC(N)=O)NC(=O)[C@@H](NC(=O)[C@H](C)NC(=O)[C@@H]1CSSC[C@H](NC(=O)[C@@H](N)CO)C(=O)N[C@@H](CC(N)=O)C(=O)N[C@@H]([C@@H](C)O)C(=O)N[C@@H](CO)C(=O)N[C@@H]([C@@H](C)O)C(=O)N1)[C@@H](C)O)C(=O)N[C@@H](Cc1c[nH]cn1)C(=O)N[C@@H](CCCCN)C(=O)N[C@@H](CO)C(=O)N[C@@H](CO)C(=O)N[C@@H](CC(N)=O)C(=O)N[C@@H](CC(N)=O)C(=O)N[C@@H](Cc1ccccc1)C(=O)NCC(=O)N1CCC[C@H]1C(=O)N[C@H](C(=O)N[C@@H](CC(C)C)C(=O)N1CCC[C@H]1C(=O)N1CCC[C@H]1C(=O)N[C@H](C(=O)N[C@@H](CCCCN)C(=O)N[C@H](C(=O)NCC(=O)N[C@@H](CO)C(=O)N[C@@H](CCC(=O)O)C(=O)N[C@H](C(=O)N[C@@H](Cc1ccc(O)cc1)C(N)=O)[C@@H](C)O)C(C)C)[C@@H](C)O)[C@@H](C)CC)C(=O)O [Compound A36] (H-SCNTSTCATQRLANE[dK]([γGlu-Palmitoyl])HKSSNNFGPILPPTKVGSETY-NH2; disulfide 2-7) | 0.244 L/kg | 3.93 mL/min/kg | 1.32 h |
| CCCCCCCCCCCCCCCC(=O)N[C@@H](CCC(=O)N[C@@H](CCC(=O)NCCCC[C@@H](NC(=O)[C@H](CCC(=O)O)NC(=O)[C@H](CCC(N)=O)NC(=O)[C@H](C)NC(=O)[C@H](CC(C)C)NC(=O)[C@H](CCCNC(=N)N)NC(=O)[C@H](CCC(N)=O)NC(=O)[C@@H](NC(=O)[C@H](C)NC(=O)[C@@H]1CSSC[C@H](NC(=O)[C@@H](N)CO)C(=O)N[C@@H](CC(N)=O)C(=O)N[C@@H]([C@@H](C)O)C(=O)N[C@@H](CO)C(=O)N[C@@H]([C@@H](C)O)C(=O)N1)[C@@H](C)O)C(=O)N[C@@H](Cc1c[nH]cn1)C(=O)N[C@@H](CCCCN)C(=O)N[C@@H](CO)C(=O)N[C@@H](CO)C(=O)N[C@@H](CC(N)=O)C(=O)N[C@@H](CC(N)=O)C(=O)N[C@@H](Cc1ccccc1)C(=O)NCC(=O)N1CCC[C@H]1C(=O)N[C@H](C(=O)N[C@@H](CC(C)C)C(=O)N1CCC[C@H]1C(=O)N1CCC[C@H]1C(=O)N[C@H](C(=O)N[C@@H](CCCCN)C(=O)N[C@H](C(=O)NCC(=O)N[C@@H](CO)C(=O)N[C@@H](CCC(=O)O)C(=O)N[C@H](C(=O)N[C@@H](Cc1ccc(O)cc1)C(N)=O)[C@@H](C)O)C(C)C)[C@@H](C)O)[C@@H](C)CC)C(=O)O)C(=O)O [Compound A28] (H-SCNTSTCATQRLAQE[dK]([γGlu-γGlu-Palmitoyl])HKSSNNFGPILPPTKVGSETY-NH2; disulfide 2-7) | 0.17 L/kg | 0.485 mL/min/kg | 5.41 h |
| CCCCCCCCCCCCCCCC(=O)N[C@@H](CCC(=O)NCCOCCOCC(=O)NCCOCCOCC(=O)N[C@@H](CCC(=O)NCCCC[C@@H](NC(=O)[C@H](CCC(=O)O)NC(=O)[C@H](CC(N)=O)NC(=O)[C@H](C)NC(=O)[C@H](CC(C)C)NC(=O)[C@H](CCCNC(=N)N)NC(=O)[C@H](CCC(N)=O)NC(=O)[C@@H](NC(=O)[C@H](C)NC(=O)[C@@H]1CSSC[C@H](NC(=O)[C@@H](N)CO)C(=O)N[C@@H](CC(N)=O)C(=O)N[C@@H]([C@@H](C)O)C(=O)N[C@@H](CO)C(=O)N[C@@H]([C@@H](C)O)C(=O)N1)[C@@H](C)O)C(=O)N[C@@H](Cc1c[nH]cn1)C(=O)N[C@@H](CCCCN)C(=O)N[C@@H](CO)C(=O)N[C@@H](CO)C(=O)N[C@@H](CC(N)=O)C(=O)N[C@@H](CC(N)=O)C(=O)N[C@@H](Cc1ccccc1)C(=O)NCC(=O)N1CCC[C@H]1C(=O)N[C@H](C(=O)N[C@@H](CC(C)C)C(=O)N1CCC[C@H]1C(=O)N1CCC[C@H]1C(=O)N[C@H](C(=O)N[C@@H](CCCCN)C(=O)N[C@H](C(=O)NCC(=O)N[C@@H](CO)C(=O)N[C@@H](CCC(=O)O)C(=O)N[C@H](C(=O)N[C@@H](Cc1ccc(O)cc1)C(N)=O)[C@@H](C)O)C(C)C)[C@@H](C)O)[C@@H](C)CC)C(=O)O)C(=O)O [Compound A25] (H-SCNTSTCATQRLANE[dK]([γGlu-AEEA-AEEA-γGlu-Palmitoyl])HKSSNNFGPILPPTKVGSETY-NH2; disulfide 2-7; N-terminus assumed) | 0.249 L/kg | 0.788 mL/min/kg | 4.97 h |
| CC[C@H](C)[C@H](NC(=O)[C@@H]1CCCN1C(=O)CNC(=O)[C@H](Cc1ccccc1)NC(=O)[C@H](CC(N)=O)NC(=O)[C@H](CC(N)=O)NC(=O)[C@H](CO)NC(=O)[C@H](CO)NC(=O)[C@H](CCCCN)NC(=O)[C@H](Cc1c[nH]cn1)NC(=O)[C@H](CC(C)C)NC(=O)[C@H](CCCCNC(=O)CCCCCCCCCCCC(=O)O)NC(=O)[C@H](CC(N)=O)NC(=O)[C@H](C)NC(=O)[C@H](CC(C)C)NC(=O)[C@H](CCCNC(=N)N)NC(=O)[C@H](CCC(N)=O)NC(=O)[C@@H](NC(=O)[C@H](C)NC(=O)[C@@H]1CSSC[C@H](NC(=O)[C@@H](N)CO)C(=O)N[C@@H](CC(N)=O)C(=O)N[C@@H]([C@@H](C)O)C(=O)N[C@@H](CO)C(=O)N[C@@H]([C@@H](C)O)C(=O)N1)[C@@H](C)O)C(=O)N[C@@H](CC(C)C)C(=O)N1CCC[C@H]1C(=O)N1CCC[C@H]1C(=O)N[C@H](C(=O)N[C@@H](CCCCN)C(=O)N[C@H](C(=O)NCC(=O)N[C@@H](CO)C(=O)N[C@@H](CCC(=O)O)C(=O)N[C@H](C(=O)N[C@@H](Cc1ccc(O)cc1)C(N)=O)[C@@H](C)O)C(C)C)[C@@H](C)O [Compound A31] (H-SCNTSTCATQRLANK(X5)LHKSSNNFGPILPPTKVGSETY-NH2; disulfide 2-7) | 0.57 L/kg | 18.9 mL/min/kg | 0.404 h |
| CCCCCCCCCCCCCCCCCC(=O)N[C@@H](CCC(=O)N[C@@H](CCC(=O)NCCCC[C@@H](NC(=O)[C@H](CCC(=O)O)NC(=O)[C@H](CC(N)=O)NC(=O)[C@H](C)NC(=O)[C@H](CC(C)C)NC(=O)[C@H](CCCNC(=N)N)NC(=O)[C@H](CCC(N)=O)NC(=O)[C@@H](NC(=O)[C@H](C)NC(=O)[C@@H]1CSSC[C@H](NC(=O)[C@@H](N)CO)C(=O)N[C@@H](CC(N)=O)C(=O)N[C@@H]([C@@H](C)O)C(=O)N[C@@H](CO)C(=O)N[C@@H]([C@@H](C)O)C(=O)N1)[C@@H](C)O)C(=O)N[C@@H](Cc1c[nH]cn1)C(=O)N[C@@H](CCCCN)C(=O)N[C@@H](CO)C(=O)N[C@@H](CO)C(=O)N[C@@H](CC(N)=O)C(=O)N[C@@H](CC(N)=O)C(=O)N[C@@H](Cc1ccccc1)C(=O)NCC(=O)N1CCC[C@H]1C(=O)N[C@H](C(=O)N[C@@H](CC(C)C)C(=O)N1CCC[C@H]1C(=O)N1CCC[C@H]1C(=O)N[C@H](C(=O)N[C@@H](CCCCN)C(=O)N[C@H](C(=O)NCC(=O)N[C@@H](CO)C(=O)N[C@@H](CCC(=O)O)C(=O)N[C@H](C(=O)N[C@@H](Cc1ccc(O)cc1)C(N)=O)[C@@H](C)O)C(C)C)[C@@H](C)O)[C@@H](C)CC)C(=O)O)C(=O)O [Compound A56] (H-SCNTSTCATQRLANE[dK]([γGlu-γGlu-Stearoyl])HKSSNNFGPILPPTKVGSETY-NH2; disulfide 2-7) | 0.469 L/kg | 1.34 mL/min/kg | 4.29 h |
| CC[C@H](C)[C@H](NC(=O)[C@@H]1CCCN1C(=O)CNC(=O)[C@H](Cc1ccccc1)NC(=O)[C@H](CC(N)=O)NC(=O)[C@H](CC(N)=O)NC(=O)[C@H](CO)NC(=O)[C@H](CO)NC(=O)[C@H](CCCCN)NC(=O)[C@H](Cc1c[nH]cn1)NC(=O)[C@H](CC(C)C)NC(=O)[C@H](CCCCNC(=O)CC[C@H](NC(=O)CC[C@H](NC(=O)COCCOCNC(=O)COCCOCNC(=O)CC[C@H](NC(=O)CCCCCCCCCCCCCCCCCCC(=O)O)C(=O)O)C(=O)O)C(=O)O)NC(=O)[C@H](CC(N)=O)NC(=O)[C@H](C)NC(=O)[C@H](CC(C)C)NC(=O)[C@H](CCCNC(=N)N)NC(=O)[C@H](CCC(N)=O)NC(=O)[C@@H](NC(=O)[C@H](C)NC(=O)[C@@H]1CSSC[C@H](NC(=O)[C@@H](N)CO)C(=O)N[C@@H](CC(N)=O)C(=O)N[C@@H]([C@@H](C)O)C(=O)N[C@@H](CO)C(=O)N[C@@H]([C@@H](C)O)C(=O)N1)[C@@H](C)O)C(=O)N[C@@H](CC(C)C)C(=O)N1CCC[C@H]1C(=O)N1CCC[C@H]1C(=O)N[C@H](C(=O)N[C@@H](CCCCN)C(=O)N[C@H](C(=O)NCC(=O)N[C@@H](CO)C(=O)N[C@@H](CCC(=O)O)C(=O)N[C@H](C(=O)N[C@@H](Cc1ccc(O)cc1)C(N)=O)[C@@H](C)O)C(C)C)[C@@H](C)O [Compound A94] (H-SCNTSTCATQRLANK([γGlu-γGlu-X3])LHKSSNNFGPILPPTKVGSETY-NH2; disulfide 2-7; N-terminus assumed) | 0.084 L/kg | 0.0365 mL/min/kg | 29.3 h |
